This passage reports IC50 results from patent publication US20070270418A1, “Inhibitors of P38 and Methods of Using the Same” (priority 2003, published 2007).

Read-outs that look alike come from different tables or passages of the source.

One assay deals with T1, p38α (Homo sapiens, UniProt Q16539).
T1 construct: p38 MAP Kinases are recombinant human full-length proteins with an amino-terminal GST fusion; GST (N); purchased Upstate (Charlottesville, Va.); host or cells: E. coli
Nature of the assay: p38 MAP Kinase assay, ATF2 phosphorylation (ELISA). In kind it is biochemical. The following applies: 40 μM ATP. From the text: Compounds of the invention are screened for the ability to inhibit ATF2 phosphorylation by p38 MAP Kinase in vitro. The ability of compounds to inhibit ATF2 phosphorylation in this in vitro assay is correlated with the inhibition of p38 MAP Kinase and TNFα expression in vivo, and is therefore an indicator of potential in vivo therapeutic activity (Raingeaud, J., et al, J. Biol. Chem., 270: 7420-7426, 1995, Brinkman, M. N., et al, J. Bil. Chem. 274: 30882-30886, 1999 and Fuchs, S. Y. et al, J. Biol. Chem. 275: 12560-12564, 2000).
All kinases and the substrate ATF2 are acquired from Upstate (Charlottesville, Va.). p38 MAP Kinases are recombinant human full-length proteins with an amino-terminal GST fusion, expressed in and purified from E. coli. ATF2 is a GST fusion protein containing amino acids 19-96 of human ATF2 expressed in E. coli. All proteins were aliquoted and stored at −80° C.
p38 MAP Kinase assays are performed using an assay buffer containing 25 mM HEPES, pH 7.5, 10 mM MgCl2, 2 mM DTT, 20 mM β-glycerophosphate, 0.1 mM Na3VO4, 40 μM ATP and 1.25 μM of ATF2, together with 6 ng of p38α protein, 12 ng p38β protein, 1.5 ng p38γ, or 0.4 ng JNK2α2. Compounds are serially diluted in DMSO and 2 μL of test compound at 25× final concentration is used. The vehicle control receives DMSO only. Test compounds are pre-incubated with 20 μl of enzyme in kinase buffer (25 mM HEPES, pH 7.5, 10 mM MgCl2, 2 mM DTT, 20 mM 3-glycerophosphate and 0.1 mM Na3VO4) at room temperature for 15 minutes. […] The reactions are incubated for 30 minutes at 37° C. and terminated by the addition of 18 μl of 200 mM EDTA. An ELISA method is used to measure the phosphorylation of ATF2 at Thr 69. High binding 96-well plates (Corning 3369) are coated with 50 μl of kinase reaction for 1 hour at 37° C. The coated plates are washed with 200 μl washing buffer (25 mM Tris HCl, pH 8.3, 192 mM glycine, 0.1% SDS and 0.05% Tween-20) three times. The plates are then washed three times with SuperBlock in TBS (Pierce, 37535). After blocking, plates are incubated with 50 μl of rabbit anti-phospho-ATF2 antibody (Cell Signaling, 9221 L, 1:500) for 30 minutes at 37° C. Plates are washed three times with washing buffer prior to incubation with 50 μl HRP-conjugated goat anti-rabbit antibody (Cell Signaling, 7074, 1:500) for 30 minutes at 37° C. Plates are then washed three times with washing buffer before incubation with 50 μl of Ultra TMB-ELISA (Pierce, 34028) for 8 minutes at room temperature. Finally, 50 μl of phosphoric acid (1 M) is added to stop reactions and plate absorbance is read at 450 nm on a SpectraMax 250 plate reader.
On the technique in general: ELISA stands for enzyme-linked immunosorbent assay.

Assay [1] relates to TNFα release from THP-1 cells. Nature of the assay: TNFα release from LPS-stimulated THP-1 cells. In kind it is cell-based. The note with it: Homo sapiens, THP-1, 18 h. The text has this: Compounds of the invention are screened for the ability to inhibit TNFα and IL-1β release from THP-1 cells stimulated with lipopolysaccharide (LPS) in vitro. The ability of compounds to inhibit TNFα and IL-1β release in this in vitro assay is correlated with the inhibition of p38 activity and TNFα and IL-1β expression in vivo, and is therefore an indicator of potential in vivo therapeutic activity (Lee J. C. et al, Ann. N.Y. Acad. Sci. 696: 149-170, 1993 and Nature, 372: 739-746, 1994).
THP-1 cells from ATCC (TIB202) are maintained at 37° C., 5% CO2 in RPMI 1640 media (MediaTech, Herndon, Va.) containing 4.5 g/L glucose, supplemented with 10% fetal bovine serum, 1% penicillin/streptomycin and 50 μM β-mercaptoethanol.
Test compounds are initially dissolved in RPMI media with 1% DMSO (v/v). Compounds are then serially diluted in RPMI media for all subsequent dilutions. The assay is performed under sterile conditions. THP-1 cells at a culture density of 6-8×10^5 cells/ml are collected and resuspended in the RPMI media at 10^6 cells/ml. 100 μl of resuspended cells are added to each well, which contain 100 μl of a test compound. Test compounds are prepared at twice the final concentration. Final DMSO concentration is no more than 0.5% (v/v). Cells are preincubated with compound for 30 minutes at 37° C., 5% CO2 prior to stimulation with lipopolysaccharide (LPS) (Sigma L-2880, 4 mg/ml stock in PBS). The final LPS concentration in each well is 10 or 30 μg/ml for TNFα and IL-1β release, respectively. Unstimulated control cell suspensions receive PBS vehicle only. Cell mixtures are incubated for 18 or 48 hours for TNFα and IL-1β release, respectively. 150 μl of supernatants are taken and transferred to a fresh plate and stored at −20° C. until further analysis.

Setting [2] is: read-out: TNFα (THP-1) IC50 (nM).
Setting [3] is: LPS 10 μg/ml, 18 hours, read-out: TNFα (THP-1) IC50.

T1 sequence (Q16539 whole entry, the tested form may be a part): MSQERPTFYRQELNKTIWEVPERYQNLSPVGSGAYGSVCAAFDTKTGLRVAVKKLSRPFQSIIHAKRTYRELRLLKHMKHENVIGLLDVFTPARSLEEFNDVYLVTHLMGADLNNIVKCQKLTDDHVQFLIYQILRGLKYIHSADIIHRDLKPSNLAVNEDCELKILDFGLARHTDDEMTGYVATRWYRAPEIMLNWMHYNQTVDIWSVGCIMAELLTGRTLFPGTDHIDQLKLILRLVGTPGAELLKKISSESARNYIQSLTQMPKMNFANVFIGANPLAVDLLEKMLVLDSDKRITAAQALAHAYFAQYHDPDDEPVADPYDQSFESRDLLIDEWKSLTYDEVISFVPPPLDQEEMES

As usually defined, the IC50 is the concentration at which inhibition is half-maximal. On to `Clc1ccccc1-c1nc2occn2c1-c1ccnc(N[C@H]2CN3CCC2CC3)n1` [CCCIII], for which the IC50 against p38α came to 12.5 nM; in assay [1] (setting [2]), 9 nM. Consider `Cc1ccccc1-c1nc2occn2c1-c1ccnc(N[C@H]2CN3CCC2CC3)n1` [CCCII], for which the IC50 against p38α worked out at 13.8 nM; in assay [1] (setting [2]), 5.5 nM. The like results for `Fc1ccc(-c2nc3occn3c2-c2ccnc(N[C@H]3CN4CCC3CC4)n2)c(F)c1` [CCCIV] were, in that order, 3.8 nM and 1.7 nM. Regarding `CC(=O)N1CCC(Nc2nccc(-c3c(-c4ccc(F)cc4Cl)nc4occn34)n2)CC1` [CCCIX], the IC50 against p38α was 1.3 nM; in assay [1] (setting [3]), 6.5 nM. For `CC(=O)N1CCC(Nc2nccc(-c3c(-c4ccccc4Cl)nc4occn34)n2)CC1` [CCCI] the same measures were 2.3 nM and 38.5 nM. For the compound `Cc1ccccc1-c1nc2occn2c1-c1ccnc(NC2CCNCC2)n1` [CCCVIII], the IC50 against p38α was 10 nM; in assay [1] (setting [3]), 24 nM.

As for `CN(C)CC(C)(C)CNc1nccc(-c2c(-c3cccc(C(F)(F)F)c3)nc3occn23)n1` [CCCVII], the IC50 on p38α was found to be 43.3 nM; in assay [1] (setting [3]), 136 nM. Turning to `CC(=O)N1CCC(Nc2nccc(-c3c(-c4cccc(C(F)(F)F)c4)nc4occn34)n2)CC1` [CCCVI], the IC50 came out at 4.9 nM against p38α and 82.6 nM in assay [1] (setting [3]). On to `CC(=O)N1CCC(Nc2nccc(-c3c(-c4ccccc4C)nc4occn34)n2)CC1` [CCCV], for which the IC50 was 4.8 nM against p38α and 41 nM in assay [1] (setting [3]). For `FC(F)(F)c1cccc(-c2nc3occn3c2-c2ccnc(NC3CCNCC3)n2)c1` [CCCXIII] the same measures were 21.2 nM and 111 nM. As to `CN1[C@@H]2CC[C@H]1C[C@@H](Nc1nccc(-c3c(-c4ccc(F)cc4F)nc4occn34)n1)C2` [CCCXII], the figures for the IC50 (against p38α; in assay [1] (setting [2])) were 2.6 nM and 1.2 nM, respectively. Take `COc1cccc(-c2nc3sccn3c2-c2nc(SC)ncc2-c2ccccc2)c1` [CCXXXIV]: the IC50 in assay [1] (setting [3]) is more than 10000 nM. At p38α, `CSc1nccc(-c2c(-c3ccc(F)cc3)nc3sccn23)n1` [CXXXIX, 6-(4-fluorophenyl)-5-(2-methylsulfanyl-pyrimidin-4-yl)-imidazo[2,1-b]thiazole] came in with an IC50 of 635 nM.

The compound `c1ccc(CNc2nccc(-c3c(-c4ccccc4)nc4sccn34)n2)cc1` [CXXXI] yielded an IC50 on p38α of 28.5 nM.

For `c1ccc(-c2nc3sccn3c2-c2ccnc(NCc3cccs3)n2)cc1` [CXXXVIII], at p38α, the IC50 was 10.2 nM. The same measure, in the same setting: under `c1ccc(-c2nc3sccn3c2-c2ccnc(NCC3CCCCC3)n2)cc1` [CXXXVII] stands 65.7 nM.

For `Fc1ccc(CNc2nccc(-c3c(-c4ccccc4)nc4sccn34)n2)cc1` [CXXXVI], half-maximal inhibition at p38α (IC50) was put at 150 nM.

For the compound `c1ccc(-c2nc3sccn3c2-c2ccnc(N3CCCCC3)n2)cc1` [CXXXV], inhibition at p38α was half-maximal at 396 nM (IC50). `CSc1nccc(-c2c(-c3ccccc3)nc3sccn23)n1` [CXXX] returned an IC50 against p38α of 228 nM. Consider `CN1CCCC1CCNc1nccc(-c2c(-c3ccc(F)cc3)nc3occn23)n1` (centres unmarked) [LXI], for which, on p38α, inhibition was half-maximal at 650 nM (IC50). With `Cc1csc(Nc2nccc(-c3c(-c4ccc(F)cc4)nc4occn34)n2)n1` [LXXII], the IC50 against p38α is 664 nM.

`CSc1nc(Nc2nccc(-c3c(-c4ccc(F)cc4)nc4occn34)n2)n[nH]1` [LXXVII] yielded an IC50 against p38α of 529 nM. `CNCCNc1nccc(-c2c(-c3ccc(F)cc3)nc3occn23)n1` [XCII] yielded an IC50 at p38α of 3330 nM. In the case of `CN(CCO)c1nccc(-c2c(-c3ccc(F)cc3)nc3occn23)n1` [XCVI], the IC50 against p38α was determined as 969 nM. The same measure, in the same setting: under `NC1CCN(c2nccc(-c3c(-c4ccc(F)cc4)nc4occn34)n2)CC1` [XC] stands 866 nM. Regarding `CS(=O)(=O)c1nccc(-c2c(-c3ccc(F)cc3)nc3occn23)n1` [XI, 6-(4-fluorophenyl)-5-[2-(methylsulfonyl)pyrimidin-4-yl]imidazo[2,1-b][1,3]oxazole], the IC50 against p38α came out at 4430 nM. As for `OCC(CO)Nc1nccc(-c2c(-c3ccc(F)cc3)nc3occn23)n1` [XIII], the IC50 on p38α was found to be 13 nM.
